The results in this text go back to patent US11208468B2, “Methods and compositions for treating melanoma” (The Wistar Institute of Anatomy and Biology, priority 2016, dated 2021).

In the test the test system is melanoma patient PBMC samples WM35, WM3457 and 3451. In words: Proliferative response, 3HTdR incorporation assay with peptide-pulsed monocytes. It counts as cell-based, human. Particulars: monocytes pulsed 8 hours with 25 μM peptide, cultured with PBMC for 5 days; each sample assayed. The protocol:
The peptides were screened for T-helper sequences (Th): Peptide P8 is amino acids residues 608-622 of BRAF, i.e., […] (SEQ ID NO: 15). Peptide P9 is amino acids residues […] of BRAF, i.e., […] (SEQ ID NO: 16). Peptide P10 is amino acids residues […] of BRAF, i.e., […] (SEQ ID NO: 17). These peptides bind to HLA-DR alleles using computer algorithms, as disclosed in Example 1 below. Proliferative responses were determined by standard ^3HTdR incorporation assay.
A number of such peptides were assayed as follows: Adherent monocytes (5×10^4/well) were pulsed for 8 hours with synthetic peptides (25 μM): Peptide 8 (SEQ ID NO:15), Peptide 9 (SEQ ID NO:16), and Peptide 10 (SEQ ID NO: 17). At the end of incubation, excess peptides were removed and the monocytes were cultured with one of three melanoma patient PBMC samples labeled WM35, WM3457 and 3451 (1×10^5) for 5 days.
Data are expressed as mean cpm (triplicate determinations) plus SD (bar) of ^3HTdR incorporation.

Regarding “EDLTVKIGDFGLATV (listed as Homo sapiens) [Peptide 9]”, the “Proliferative response (3HTdR incorporation, mean cpm) versus control peptide” value is recorded as “Significantly (p<0.01) different values compared to control”.

Take “SHQFEQLSGSILWHA (listed as Homo sapiens) [Peptide 8]”: the “Proliferative response (3HTdR incorporation, mean cpm) versus control peptide” value was “Significantly (p<0.01) different values compared to control”.
